In patent publication US5017596A, “Arylpyrazolylcarbinol compounds with analgesic activity” (Laboratorios del Dr. Esteve, S.A., priority 1987, dated 1991):
Read-outs that look alike come from different tables or passages of the source.

Key:
Assay type in all cases: in vivo, Swiss male mice
Settings in all cases: Mus musculus, po, read-out: % inhibition of contortions
[1] = tested on: contortions induced by acetic acid in mice; experiment: Analgesic activity: inhibition of the contortions induced by acetic acid in mice (Koster's method)
Method: Swiss male mice weighing 17-22 grams are used. Groups containing a minimum of 4 animals for each dose are used.
Each product is suspended or dissolved in gum arabic at a concentration of 5% (w/v) in distilled water and is administered orally, at a dose of 160 mg/kg, 60 minutes before the injection of acetic acid.

[2] = tested on: contortions induced by acetylcholine bromide in mice; experiment: Analgesic activity: inhibition of the contortions induced by acetylcholine bromide in mice (Collier's method)
Method: (§1) Swiss male mice weighing 17-22 grams are used. Groups containing a minimum of 4 animals are used.
Contortions are induced by the intraperitoneal injection of acetylcholine bromide (7.2 mg/kg, dissolved in physiological serum, a volume of 10 ml/kg of weight being administered) at the start of the experiment and the number of contortions is counted for 5 minutes, this being the reference number for each animal (mice with fewer than 2 contortions are rejected). Immediately afterwards, the test products are administered orally, at a dose of 160 mg/kg, in the form of a suspension or solution in gum arabic at a concentration of 5% (w/v) in distilled water. 40 and 120 minutes after the treatment, acetylcholine bromide is administered again, the contortions are noted and the readings at 40 and 120 minutes are evaluated, taking the contortions of the initial reading as the reference.

[3] = tested on: contortions induced by phenylbenzoquinone in mice; experiment: Analgesic activity: inhibition of the contortions induced by phenylbenzoquinone in mice (Siegmund's method)
Method: Analgesic activity: Inhibition of the contortions induced by phenylbenzoquinone in mice--Siegmund's method (E. Siegmund, R. Cadmus and G. Lu, Proc Soc. Exp. Biol. Med., 95, 729 (1957))
as §1
Contortions are induced by the intraperitoneal injection of phenyl-p-benzoquinone (25 ml/kg of a 0.02% solution in a solution of ethanol at a concentration of 5% (v/v) in distilled water, with Evans blue in a proportion of 0.1% (w/v)) and are counted for 15 minutes as from the time of injection. Each product is suspended or dissolved in gum arabic at a concentration of 5% (w/v) in distilled water and is administered orally, at a dose of 160 mg/kg, 60 minutes before the injection of phenylbenzoquinone. The inhibition of contortions due to each product is determined, taking as the reference the contortions in a group of control animals to which only the vehicle is administered orally 60 minutes before the phenylbenzoquinone.

[4] = 160 mg/kg, administered orally 60 minutes before acetic acid i.p., contortions counted for 15 minutes
[5] = 160 mg/kg, administered orally, acetylcholine bromide 7.2 mg/kg i.p., mean of the values at 40 and 120 minutes
[6] = 160 mg/kg, administered orally 60 minutes before phenylbenzoquinone i.p., contortions counted for 15 minutes

## CN(C)CCOC(C)(c1cccc(C(F)(F)F)c1)c1nccn1C (stereo not drawn) [Example 7]
[1]; [4]
  inhibition in vivo at 160 mg/kg: 67.5%
[2]; [5]
  inhibition in vivo at 160 mg/kg: 95%

## CN(C)CCOC(C)(c1ccc(Cl)cc1)c1nccn1CCN1CCCCC1 (stereo not drawn) [Example 20]
[3]; [6]
  inhibition in vivo at 160 mg/kg: 25%

## CCCCn1ccnc1C(O)(CCCC)c1ccccc1Cl (stereo not drawn) [Example 142]
[2]; [5]
  inhibition in vivo at 160 mg/kg: 80%

## CCCCC(O)(c1cccc(Cl)c1)c1nccn1C (stereo not drawn) [Example 119]
[1]; [4]
  inhibition in vivo at 160 mg/kg: 45%
[2]; [5]
  inhibition in vivo at 160 mg/kg: 90%

## CCCCn1ccnc1C(O)(CCCC)c1cc(OC)c(OC)c(OC)c1 (stereo not drawn) [Example 141]
[2]; [5]
  inhibition in vivo at 160 mg/kg: 62.5%

## Cn1ccnc1C(O)c1ccc(C(F)(F)F)cc1 (stereo not drawn) [Example 111]
[2]; [5]
  inhibition in vivo at 160 mg/kg: 87.5%

## Cn1ccnc1C(C)(OCCCN1CCCCC1)c1ccc(C(F)(F)F)cc1 (stereo not drawn) [Example 83]
[2]; [5]
  inhibition in vivo at 160 mg/kg: 88.3%

## COc1cc(C(C)(O)c2nccn2C)cc(OC)c1OC (stereo not drawn) [Example 137]
[2]; [5]
  inhibition in vivo at 160 mg/kg: 85%

## COc1cc(C(OCCN(C)C)c2ccnn2C)cc(OC)c1OC (stereo not drawn) [Example 33]
[3]; [6]
  inhibition in vivo at 160 mg/kg: 35%

## CCCCn1ccnc1C(O)(CCCC)c1ccc(Cl)cc1Cl (stereo not drawn) [Example 144]
[2]; [5]
  inhibition in vivo at 160 mg/kg: 88.8%

## CN(C)CCOC(C)(c1ccc(Cl)c(Cl)c1)c1nccn1C (stereo not drawn) [Example 18]
[3]; [6]
  inhibition in vivo at 160 mg/kg: 82.5%

## CC(=O)Oc1ccccc1C(=O)O [Acetylsalicylic acid, reference compound]
[3]
  inhibition in vivo at 160 mg/kg: 75%
[1]
  inhibition in vivo at 160 mg/kg: 72.5%
[2]
  inhibition in vivo at 160 mg/kg: 92.5%

## CN(C)CCCOC(C)(c1ccccc1)c1ccnn1C (stereo not drawn) [Example 95]
[3]; [6]
  inhibition in vivo at 160 mg/kg: 45%

## CN(C)CCOC(C)(c1ccccc1Cl)c1nccn1C (stereo not drawn) [Example 5]
[2]; [5]
  inhibition in vivo at 160 mg/kg: 100%

## CN(C)CCOC(c1ccccc1)c1c(Br)cnn1C (stereo not drawn) [Example 37]
[3]; [6]
  inhibition in vivo at 160 mg/kg: 77.5%
[1]; [4]
  inhibition in vivo at 160 mg/kg: 72.5%

## CN(C)CCCOC(c1cccc(Cl)c1)c1nccn1C (stereo not drawn) [Example 60]
[1]; [4]
  inhibition in vivo at 160 mg/kg: 62.5%
[2]; [5]
  inhibition in vivo at 160 mg/kg: 82.5%

## CN(C)CCCOC(c1ccc(Cl)cc1)c1nccn1C (stereo not drawn) [Example 70]
[2]; [5]
  inhibition in vivo at 160 mg/kg: 100%

## CCCCn1nccc1C(C)(OCCN(C)C)c1ccc(Cl)cc1 (stereo not drawn) [Example 30]
[3]; [6]
  inhibition in vivo at 160 mg/kg: 27.5%

## CC(=O)Nc1ccc(O)cc1 [Paracetamol, reference compound]
[3]; [6]
  inhibition in vivo at 160 mg/kg: 47.5%
[1]; [4]
  inhibition in vivo at 160 mg/kg: 20%
[2]; [5]
  inhibition in vivo at 160 mg/kg: 72.5%

## CCCCC(O)(c1ccccc1Cl)c1nccn1C (stereo not drawn) [Example 127]
[2]; [5]
  inhibition in vivo at 160 mg/kg: 70%

## CN(C)CCCOC(c1ccc(Cl)c(Cl)c1)c1nccn1C (stereo not drawn) [Example 87]
[3]; [6]
  inhibition in vivo at 160 mg/kg: 77.5%

## CN(C)CCCOC(c1ccc(C(F)(F)F)cc1)c1nccn1C (stereo not drawn) [Example 74]
[2]; [5]
  inhibition in vivo at 160 mg/kg: 100%

## CCCCn1ccnc1C(O)c1cc(OC)c(OC)c(OC)c1 (stereo not drawn) [Example 117]
[2]; [5]
  inhibition in vivo at 160 mg/kg: 60%

## CCCCn1nccc1C(OCCN(C)C)c1ccccc1 (stereo not drawn) [Example 27]
[3]; [6]
  inhibition in vivo at 160 mg/kg: 40%

## CN(C)CCCOC(c1cccc(C(F)(F)F)c1)c1nccn1C (stereo not drawn) [Example 73]
[2]; [5]
  inhibition in vivo at 160 mg/kg: 100%

## Cc1cc(C(OCCN(C)C)c2ccccc2)n(C)n1 (stereo not drawn) [Example 39]
[3]; [6]
  inhibition in vivo at 160 mg/kg: 37.5%

## Cn1ccnc1C(OCCCN1CCCCC1)c1ccc(Cl)cc1 (stereo not drawn) [Example 82]
[2]; [5]
  inhibition in vivo at 160 mg/kg: 83.8%

## Cn1nccc1C(OCCN1CCCC1)c1ccccc1 (stereo not drawn) [Example 34]
[3]
  inhibition in vivo at 160 mg/kg: 40%

## COc1ccc(C(C)(O)c2nccn2C)cc1 (stereo not drawn) [Example 133]
[2]; [5]
  inhibition in vivo at 160 mg/kg: 52.5%

## COc1ccc(C(C)(OCCCN(C)C)c2nccn2C)cc1 (stereo not drawn) [Example 69]
[2]; [5]
  inhibition in vivo at 160 mg/kg: 95%

## Cn1ccnc1C(C)(OCCN1CCCC1)c1cccc(Cl)c1 (stereo not drawn) [Example 12]
[1]; [4]
  inhibition in vivo at 160 mg/kg: 82.5%

## CCCCn1ccnc1C(OCCN(C)C)c1ccc(C(F)(F)F)cc1 (stereo not drawn) [Example 14]
[2]; [5]
  inhibition in vivo at 160 mg/kg: 85%

## CCCCn1ccnc1C(O)c1ccc(Cl)cc1 (stereo not drawn) [Example 116]
[3]; [6]
  inhibition in vivo at 160 mg/kg: 27.5%

## CN(C)CCOC(C)(c1cccc(Cl)c1)c1nccn1C (stereo not drawn) [Example 8]
[2]; [5]
  inhibition in vivo at 160 mg/kg: 95%

## Cc1cc(C(C)(OCCN(C)C)c2ccccc2)n(C)n1 (stereo not drawn) [Example 38]
[3]; [6]
  inhibition in vivo at 160 mg/kg: 42.5%

## CN(C)CCCOC(C)(c1ccc(Cl)cc1)c1nccn1C (stereo not drawn) [Example 59, α-(4-chlorophenyl)-α-methyl-1-methyl-0-(3-dimethylaminopropyl)-1H-imidazole-2-methanol]
[1]; [4]
  inhibition in vivo at 160 mg/kg: 87.5%
[2]; [5]
  inhibition in vivo at 160 mg/kg: 100%

## CN(C)CCCOC(C)(c1ccc(Cl)c(Cl)c1)c1nccn1C (stereo not drawn) [Example 86]
[3]; [6]
  inhibition in vivo at 160 mg/kg: 98.8%
[1]; [4]
  inhibition in vivo at 160 mg/kg: 50%

## CN(C)CCOC(c1ccccc1)c1ccnn1C (stereo not drawn) [Example 31]
[3]; [6]
  inhibition in vivo at 160 mg/kg: 80%
[1]; [4]
  inhibition in vivo at 160 mg/kg: 80%

## CN(C)CCOC(C)(c1ccc(Cl)cc1)c1nccn1C (stereo not drawn) [Example 2]
[2]; [5]
  inhibition in vivo at 160 mg/kg: 100%

## COc1ccc(C(OCCCN(C)C)c2nccn2C)cc1 (stereo not drawn) [Example 75]
[2]; [5]
  inhibition in vivo at 160 mg/kg: 100%

## CN(C)CCOC(C)(c1ccccc1)c1ccnn1C (stereo not drawn) [Example 32]
[3]; [6]
  inhibition in vivo at 160 mg/kg: 37.5%

## Cn1ccnc1C(C)(O)c1ccc(Cl)cc1 (stereo not drawn) [Example 121, α-(4-chlorophenyl)-α-methyl-1-methyl-1H-imidazole-2-methanol]
[2]; [5]
  inhibition in vivo at 160 mg/kg: 70%

## CN(C)CCCOC(c1ccc(Cl)cc1)(c1nccn1C)C1CCN(C)CC1 (stereo not drawn) [Example 91]
[3]; [6]
  inhibition in vivo at 160 mg/kg: 57.5%

## CCCCn1ccnc1C(C)(OCCCN(C)C)c1ccc(Cl)cc1 (stereo not drawn) [Example 77]
[2]; [5]
  inhibition in vivo at 160 mg/kg: 100%

## Cn1ccnc1C(O)c1cccc(C(F)(F)F)c1 (stereo not drawn) [Example 110, 1-methyl-α-(3-trifluoromethylphenyl)-1H-imidazole-2-methanol]
[2]; [5]
  inhibition in vivo at 160 mg/kg: 57.5%

## Cn1ccnc1C(O)c1ccc(Cl)c(Cl)c1 (stereo not drawn) [Example 113]
[3]; [6]
  inhibition in vivo at 160 mg/kg: 57.5%

## CCCCC(O)(c1cccc(C(F)(F)F)c1)c1nccn1C (stereo not drawn) [Example 129]
[2]; [5]
  inhibition in vivo at 160 mg/kg: 55%

## CN(C)CCCOC(C)(c1ccc(C(F)(F)F)cc1)c1nccn1C (stereo not drawn) [Example 72]
[2]; [5]
  inhibition in vivo at 160 mg/kg: 100%

## CN(C)CCCOC(C)(c1ccc(F)cc1)c1nccn1C (stereo not drawn) [Example 64]
[1]; [4]
  inhibition in vivo at 160 mg/kg: 50%
[2]; [5]
  inhibition in vivo at 160 mg/kg: 100%

## CN(C)CCOC(C)(c1ccc(F)cc1)c1nccn1C (stereo not drawn) [Example 6]
[1]; [4]
  inhibition in vivo at 160 mg/kg: 50%
[2]; [5]
  inhibition in vivo at 160 mg/kg: 75%

## CCCCC(OCCCN(C)C)(c1cccc(C(F)(F)F)c1)c1nccn1C (stereo not drawn) [Example 76]
[2]; [5]
  inhibition in vivo at 160 mg/kg: 100%

## CN(C)CCOC(c1cccc(Cl)c1)c1nccn1C (stereo not drawn) [Example 4]
[2]; [5]
  inhibition in vivo at 160 mg/kg: 95%

## CCCCn1ccnc1C(O)c1ccc(Cl)cc1Cl (stereo not drawn) [Example 115]
[3]; [6]
  inhibition in vivo at 160 mg/kg: 39.5%
[1]; [4]
  inhibition in vivo at 160 mg/kg: 50%

## CCC(OCCCN(C)C)(c1ccc(Cl)cc1)c1nccn1C (stereo not drawn) [Example 61]
[2]; [5]
  inhibition in vivo at 160 mg/kg: 97.5%

## Cn1ccnc1C(C)(O)c1ccccc1Cl (stereo not drawn) [Example 126]
[2]; [5]
  inhibition in vivo at 160 mg/kg: 65%

## Cn1ccnc1C(O)c1ccc(Cl)cc1 (stereo not drawn) [Example 107]
[2]; [5]
  inhibition in vivo at 160 mg/kg: 57.5%

## CN(C)CCOC(c1ccc(Cl)c(Cl)c1)c1nccn1C (stereo not drawn) [Example 19]
[3]; [6]
  inhibition in vivo at 160 mg/kg: 87.5%

## CN(C)CCCn1ccnc1C(C)(O)c1ccc(Cl)cc1 (stereo not drawn) [Example 146]
[3]; [6]
  inhibition in vivo at 160 mg/kg: 28.5%

## CCCCC(OCCN(C)C)(c1cccc(Cl)c1)c1nccn1C (stereo not drawn) [Example 9]
[2]; [5]
  inhibition in vivo at 160 mg/kg: 97.5%

## COc1cc(C(C)(OCCCN(C)C)c2nccn2C)cc(OC)c1OC (stereo not drawn) [Example 68]
[2]; [5]
  inhibition in vivo at 160 mg/kg: 95%

## CN(C)CCCOC(c1ccccc1)c1ccnn1C (stereo not drawn) [Example 94]
[3]; [6]
  inhibition in vivo at 160 mg/kg: 40%
